# US20240301409A1, “Chemically Modified Small Activating RNA” (RACTIGEN THERAPEUTICS, priority 2021, published 2024)
# System: J82 cells
# Experiment: Cellular proliferation assay (CCK8) in J82 cells, combined with Mitomycin C or valrubicin
# Assay type: cell-based, human
# Settings: for Combination Index (CI) / relative proliferation proportion of cells: J82 cells
# Experimental: J82 cells were transfected with RAG1-40-31 at concentrations of 0.1, 0.5, 1, 5, 10, 25 and 50 nM for 24 hours, and then Mitomycin C at concentrations of 1, 10, 100, 1000 and 10000 nM was added. The combined treatment was carried out with concentrations in pairs. After treatment, the proliferation of cells was detected using CCK8 kit. FIGS. 14A-14B show the relative proliferation proportion of J82 cells after the combined treatment with chemically modified saRNA RAG1-40-31 and valrubicin. […] Control and DMSO are the blank transfection control and the solvent for dilution control, respectively.
# J82 cells were transfected with RAG1-40-31 at concentrations of 0.1, 0.5, 1, 5, 10, 25 and 50 nM for 24 hours, and then valrubicin at concentrations of 1, 10, 100, 1000 and 10000 nM was added. The combined treatment was carried out with concentrations in pairs. After treatment, the cellular proliferation was detected by CCK8 kit. FIGS. 15A-15B show the relative proliferation proportion of T24 cells after the combined treatment with chemically modified saRNA RAG1-40-31 and Mitomycin C. […] Control and DMSO are the blank transfection control and the solvent for dilution control, respectively.
# Human bladder cancer cells Ku-7-LG (ATCC), J82 (ATCC) and T24 (ATCC) were cultured in McCoy medium (Gibco) comprising 10% calf serum (Sigma-Aldrich) and 1% penicillin/Streptomycin (Gibco). Cells were cultured at 37° C. under 5% CO2. Ku-7-LG, J82 and T24 cells were plated into 12-well plates at 10×10^4 cells per well, transfected with the small RNA at a concentration of 10 nM (unless otherwise specified) for three days, using RNAiMax (Invitrogen, Carlsbad, CA) according to the manufacturer's instructions. Two replicate wells were set for each treatment.
# Cells were plated in a 96-well plate at 2˜4×10^3 cells/well, cultured overnight, and transfected with the oligonucleotide duplexes. Three days after transfection, CCK8 (Dojindo) was used to detect cellular proliferation following manufacturer's instructions. The experimental steps are briefly described as follows: 10 μL of CCK8 solution was added to each well, incubated at 37° C. for 1 hour, and then the absorbance at 450 nm was measured using a microplate reader.
# In this example, chemically modified saRNA RAG1-40-31 was used in combination with clinical chemical agents to evaluate the suppressing effect of the combined agents on cancer cells.
# [1] = RAG1-40-31 0.1 nM + MMC 1000 nM
substance,measurement,setting,value
"RAG1-40-31: saRNA duplex: sense fCfCAACUCAUUCUCCAAG*U*C (SEQ ID NO 16); antisense U*A*fCfUfUGGAGAAfUGAGfUfUGG*fC*A (SEQ ID NO 12) (sense CCAACUCAUUCUCCAAGUC; antisense UACUUGGAGAAUGAGUUGGCA; 2'-F and phosphorothioate modifications; modified_base (1)..(2) (1,2)=2′-fluoro; modified_base (17)..(19) (17,18,19)=phosphorothioate (PS) backbone modification; modified_base (2)..(21) (2,3,19,20,21)=phosphorothioate (PS) backbone modification; modified_base (3)..(20) (3,4,5,12,16,17,20)=2′-fluoro)",Combination Index (CI),RAG1-40-31 0.1 nM + MMC 1 nM,0.08
same,Combination Index (CI),RAG1-40-31 0.1 nM + MMC 10 nM,0.42
same,Combination Index (CI),RAG1-40-31 0.1 nM + MMC 100 nM,0.47
same,Combination Index (CI),[1],0.73
same,Combination Index (CI),RAG1-40-31 0.1 nM + MMC 10000 nM,0.50
same,Combination Index (CI),RAG1-40-31 0.1 nM + valrubicin 1 nM,0.10
same,Combination Index (CI),RAG1-40-31 0.1 nM + valrubicin 10 nM,0.42
same,Combination Index (CI),RAG1-40-31 0.1 nM + valrubicin 100 nM,0.85
same,Combination Index (CI),RAG1-40-31 0.1 nM + valrubicin 1000 nM,0.18
same,Combination Index (CI),RAG1-40-31 0.1 nM + valrubicin 10000 nM,0.19
same,Combination Index (CI),RAG1-40-31 0.5 nM + MMC 1 nM,0.17
same,Combination Index (CI),RAG1-40-31 0.5 nM + MMC 10 nM,0.47
same,Combination Index (CI),RAG1-40-31 0.5 nM + MMC 100 nM,0.54
same,Combination Index (CI),RAG1-40-31 0.5 nM + MMC 1000 nM,0.75
same,Combination Index (CI),RAG1-40-31 0.5 nM + MMC 10000 nM,0.25
same,Combination Index (CI),RAG1-40-31 0.5 nM + valrubicin 1 nM,0.18
same,Combination Index (CI),RAG1-40-31 0.5 nM + valrubicin 10 nM,0.08
same,Combination Index (CI),RAG1-40-31 0.5 nM + valrubicin 100 nM,1.31
same,Combination Index (CI),RAG1-40-31 0.5 nM + valrubicin 1000 nM,0.14
same,Combination Index (CI),RAG1-40-31 0.5 nM + valrubicin 10000 nM,0.11
same,Combination Index (CI),RAG1-40-31 1 nM + MMC 1 nM,0.13
same,Combination Index (CI),RAG1-40-31 1 nM + MMC 10 nM,0.58
same,Combination Index (CI),RAG1-40-31 1 nM + MMC 100 nM,0.52
same,Combination Index (CI),RAG1-40-31 1 nM + MMC 1000 nM,0.76
same,Combination Index (CI),RAG1-40-31 1 nM + MMC 10000 nM,0.46
same,Combination Index (CI),RAG1-40-31 1 nM + valrubicin 1 nM,0.26
same,Combination Index (CI),RAG1-40-31 1 nM + valrubicin 10 nM,0.12
same,Combination Index (CI),RAG1-40-31 1 nM + valrubicin 100 nM,0.30
same,Combination Index (CI),RAG1-40-31 1 nM + valrubicin 1000 nM,0.12
same,Combination Index (CI),RAG1-40-31 1 nM + valrubicin 10000 nM,0.11
same,Combination Index (CI),RAG1-40-31 5 nM + MMC 1 nM,0.29
same,Combination Index (CI),RAG1-40-31 5 nM + MMC 10 nM,0.32
same,Combination Index (CI),RAG1-40-31 5 nM + MMC 100 nM,0.40
same,Combination Index (CI),RAG1-40-31 5 nM + MMC 1000 nM,0.43
same,Combination Index (CI),RAG1-40-31 5 nM + MMC 10000 nM,0.41
same,Combination Index (CI),RAG1-40-31 5 nM + valrubicin 1 nM,0.12
same,Combination Index (CI),RAG1-40-31 5 nM + valrubicin 10 nM,0.32
same,Combination Index (CI),RAG1-40-31 5 nM + valrubicin 100 nM,0.61
same,Combination Index (CI),RAG1-40-31 5 nM + valrubicin 1000 nM,0.13
same,Combination Index (CI),RAG1-40-31 5 nM + valrubicin 10000 nM,0.06
same,Combination Index (CI),RAG1-40-31 10 nM + MMC 1 nM,0.40
same,Combination Index (CI),RAG1-40-31 10 nM + MMC 10 nM,0.47
same,Combination Index (CI),RAG1-40-31 10 nM + MMC 100 nM,0.37
same,Combination Index (CI),RAG1-40-31 10 nM + MMC 1000 nM,0.41
same,Combination Index (CI),RAG1-40-31 10 nM + MMC 10000 nM,0.29
same,Combination Index (CI),RAG1-40-31 10 nM + valrubicin 1 nM,0.14
same,Combination Index (CI),RAG1-40-31 10 nM + valrubicin 10 nM,0.22
same,Combination Index (CI),RAG1-40-31 10 nM + valrubicin 100 nM,0.37
same,Combination Index (CI),RAG1-40-31 10 nM + valrubicin 1000 nM,0.11
same,Combination Index (CI),RAG1-40-31 10 nM + valrubicin 10000 nM,0.04
same,Combination Index (CI),RAG1-40-31 25 nM + MMC 1 nM,0.32
same,Combination Index (CI),RAG1-40-31 25 nM + MMC 10 nM,0.50
same,Combination Index (CI),RAG1-40-31 25 nM + MMC 100 nM,0.37
same,Combination Index (CI),RAG1-40-31 25 nM + MMC 1000 nM,0.28
same,Combination Index (CI),RAG1-40-31 25 nM + MMC 10000 nM,0.09
same,Combination Index (CI),RAG1-40-31 25 nM + valrubicin 1 nM,0.14
same,Combination Index (CI),RAG1-40-31 25 nM + valrubicin 10 nM,0.10
same,Combination Index (CI),RAG1-40-31 25 nM + valrubicin 100 nM,0.16
same,Combination Index (CI),RAG1-40-31 25 nM + valrubicin 1000 nM,0.05
same,Combination Index (CI),RAG1-40-31 25 nM + valrubicin 10000 nM,0.02
same,relative proliferation proportion of cells,"RAG1-40-31 25 nM and 50 nM + Mitomycin C 1, 10, 100, 1000 and 10000 nM",lower than 26%
same,relative proliferation proportion of cells,"RAG1-40-31 25 nM and 50 nM + Valrubicin 1, 10, 100, 1000 and 10000 nM",lower than 30%
same,Combination Index (CI),RAG1-40-31 50 nM + MMC 1 nM,0.96
same,Combination Index (CI),RAG1-40-31 50 nM + MMC 10 nM,0.98
same,Combination Index (CI),RAG1-40-31 50 nM + MMC 100 nM,0.44
same,Combination Index (CI),RAG1-40-31 50 nM + MMC 1000 nM,0.19
same,Combination Index (CI),RAG1-40-31 50 nM + MMC 10000 nM,0.15
same,Combination Index (CI),RAG1-40-31 50 nM + valrubicin 1 nM,0.11
same,Combination Index (CI),RAG1-40-31 50 nM + valrubicin 10 nM,0.14
same,Combination Index (CI),RAG1-40-31 50 nM + valrubicin 100 nM,0.22
same,Combination Index (CI),RAG1-40-31 50 nM + valrubicin 1000 nM,0.09
same,Combination Index (CI),RAG1-40-31 50 nM + valrubicin 10000 nM,0.02
same,relative proliferation proportion of cells,"RAG1-40-31 0.1-50 nM + Mitomycin C 100, 1000 and 10000 nM",lower than 35%
same,relative proliferation proportion of cells,RAG1-40-31 0.1-50 nM + Valrubicin 1000 nM and 10000 nM,lower than 30%
same,relative proliferation proportion of cells,"RAG1-40-31 5-50 nM + Mitomycin C 1, 10, 100, 1000 and 10000 nM",lower than 43%
same,"effect of combined use with Mitomycin C or valrubicin, in words",J82 tumor cells,synergistic effect
same,Relative proliferation proportion of J82 cells,RAG1-40-31 0.1 nM + MMC 1 nM,74.3%
same,Relative proliferation proportion of J82 cells,RAG1-40-31 0.1 nM + MMC 10 nM,71.5%
same,Relative proliferation proportion of J82 cells,RAG1-40-31 0.1 nM + MMC 100 nM,32.9%
same,Relative proliferation proportion of J82 cells,[1],10.8%
